Data from publication PMC6112376, “Comprehensive Analyses and Prioritization of Tox21 10K Chemicals Affecting Mitochondrial Function by in-Depth Mechanistic Studies” (Environmental Health Perspectives, 2018).
Like-named read-outs stand apart in the source and are kept apart here.

Experiments:
[1] = system: rat primary hepatocytes; experiment: MMP assay in rat primary hepatocytes; details: for IC50: read-out: MMP assays IC50 (µM) Rat Hepatocytes
[2] = system: HepG2 cells; details: cited from earlier work
[3] = system: HepG2 cells; details: for IC50: read-out: MMP assays IC50 (µM) HepG2
[4] = system: rat primary hepatocytes
[5] = rat hepatocytes, mean ± SD of three experiments
[6] = read-out: MMP assays IC50 (µM) qHTS-HepG2
[7] = HepG2 cells, single number from one experiment
[8] = read-out: MMP assays IC50 (µM), qHTS-HepG2

SMILES: CC(=O)C1(C)CC2=C(CCCC2(C)C)CC1C (centres unmarked)
- MMP assays IC50 (µM) Rat Hepatocytes [1, 5]: inactive
- MMP assays efficacy (%) qHTS-HepG2 [2]: -50±18%
- IC50 [2, 6]: 27.3 ± 20.4 µM
- MMP assays efficacy (%) HepG2 [3, 7]: -43%
- IC50 [3, 7]: 35.5 µM
- MMP assays efficacy (%) Rat Hepatocytes [4]: inactive

SMILES: CCCCCc1cc(O)c2c(c1)OC(C)(C)[C@@H]1CCC(C)=C[C@@H]21
- MMP assays IC50 (µM) Rat Hepatocytes [1]: inactive
- MMP assays efficacy (%) qHTS-HepG2 [2]: -124±8%
- IC50 [2, 6]: 4.99 ± 1.66 µM
- MMP assays efficacy (%) HepG2 [3]: -99%
- IC50 [3]: 15.5 µM
- MMP assays efficacy (%) Rat Hepatocytes [4]: inactive

SMILES: Oc1ccc(C(c2ccc(O)cc2)C(Cl)(Cl)Cl)cc1
- IC50 [1]: 33.2 ± 24.2 µM
- MMP assays efficacy (%) qHTS-HepG2 [2]: -101±13%
- IC50 [2, 6]: 8.78 ± 1.43 µM
- MMP assays efficacy (%) HepG2 [3]: -103%
- IC50 [3]: 10 µM
- MMP assays efficacy (%) Rat Hepatocytes [4]: -89±3%

SMILES: Cc1c([N+](=O)[O-])c(C)c([N+](=O)[O-])c(C(C)(C)C)c1[N+](=O)[O-]
- MMP assays IC50 (µM) Rat Hepatocytes [1]: inactive
- MMP assays efficacy (%) qHTS-HepG2 [2]: -82±11%
- IC50 [2, 6]: 20.1 ± 6.09 µM
- MMP assays efficacy (%) HepG2 [3]: -24%
- IC50 [3]: 7.94 µM
- MMP assays efficacy (%) Rat Hepatocytes [4]: inactive

SMILES: COC(=O)c1c(C)cc(O)c(C)c1O
- IC50 [1, 5]: 30.6 ± 28.4 µM
- IC50 [2, 8]: 16 ± 6.62 µM
- MMP assays efficacy (%) HepG2 [3, 7]: -103%
- IC50 [3, 7]: 25.1 µM
- MMP assays efficacy (%) Rat Hepatocytes [4]: -81±57%

SMILES: Clc1ccc(Nc2nnc(Cc3ccncc3)c3ccccc23)cc1
- IC50 [1]: 20.7 ± 14.7 µM
- MMP assays efficacy (%) qHTS-HepG2 [2]: -81±8%
- IC50 [2, 8]: 25.6 ± 4.41 µM
- MMP assays efficacy (%) HepG2 [3]: -34%
- IC50 [3]: 30.8 µM
- MMP assays efficacy (%) Rat Hepatocytes [4]: -51±4%

SMILES: CCN1CCC2(CC1)COc1cc3c(cc12)N(C(=O)c1ccc(-c2ccc(-c4nnc(C)o4)cc2C)cc1)CC3.Cl
- IC50 [1]: 40.9 ± 16 µM
- MMP assays efficacy (%) qHTS-HepG2 [2]: -58±10%
- IC50 [2, 6]: 6.09 ± 2.54 µM
- MMP assays efficacy (%) HepG2 [3]: -111%
- IC50 [3]: 19.9 µM
- MMP assays efficacy (%) Rat Hepatocytes [4]: -109±26%

SMILES: CC1=Nc2ccc3ccccc3c2C1(C)C [1,1,2-Trimethyl-1H-benzo[e]indole]
- IC50 [1]: 34.9 ± 8.48 µM
- MMP assays efficacy (%) qHTS-HepG2 [2]: -76±16%
- IC50 [2, 6]: 23.4 ± 4.03 µM
- MMP assays efficacy (%) HepG2 [3]: -96%
- IC50 [3]: 10 µM
- MMP assays efficacy (%) Rat Hepatocytes [4]: -100±23%

SMILES: Cl.Cl.Nc1ccccc1N [1,2-Phenylenediamine dihydrochloride]
- IC50 [1]: 14.2 ± 2.3 µM
- MMP assays efficacy (%) qHTS-HepG2 [2]: -99±9%
- IC50 [2, 6]: 0.44 ± 0.2 µM
- MMP assays efficacy (%) HepG2 [3]: -90%
- IC50 [3]: 1.78 µM
- MMP assays efficacy (%) Rat Hepatocytes [4]: -104±10%

SMILES: CCCCCCCCCCn1cc[n+](CCCCCCCCCC)c1C.[Cl-] [1,3-Didecyl-2-methylimidazolium chloride]
- IC50 [1]: 26.2 ± 3.35 µM
- MMP assays efficacy (%) qHTS-HepG2 [2]: -83±13%
- IC50 [2, 6]: 3.86 ± 4.19 µM
- MMP assays efficacy (%) HepG2 [3]: -104%
- IC50 [3]: 3.16 µM
- MMP assays efficacy (%) Rat Hepatocytes [4]: -110±29%

SMILES: Nc1c(Br)cc(Br)c2c1C(=O)c1ccccc1C2=O [1-Amino-2,4-dibromoanthraquinone]
- IC50 ([1]; Rattus norvegicus, Hepatocyte): 27.4 ± 4.44 µM
- MMP assays efficacy (%) qHTS-HepG2 [2]: -54±9%
- IC50 [2, 6]: 2.78 ± 3.75 µM
- MMP assays IC50 (µM) HepG2 [3]: inactive
- MMP assays efficacy (%) HepG2 [3]: inactive
- MMP assays efficacy (%) Rat Hepatocytes [4]: -48±19%

SMILES: O=[N+]([O-])c1ccc(F)c([N+](=O)[O-])c1 [1-Fluoro-2,4-dinitrobenzene]
- IC50 [1]: 8.3 ± 5.67 µM
- MMP assays efficacy (%) qHTS-HepG2 [2]: -104±8%
- IC50 [2, 6]: 3.71 ± 0.6 µM
- MMP assays efficacy (%) HepG2 [3]: -103%
- IC50 [3]: 5.48 µM
- MMP assays efficacy (%) Rat Hepatocytes [4]: -68±38%

SMILES: O=C1NC(=O)c2cccc3cccc1c23 [1H-Benzo[de]isoquinoline-1,3(2H)-dione]
- IC50 [1]: 5.56 ± 8.92 µM
- MMP assays efficacy (%) qHTS-HepG2 [2]: -77±24%
- IC50 [2, 6]: 8.31 ± 3.47 µM
- MMP assays efficacy (%) HepG2 [3]: -77%
- IC50 [3]: 14.1 µM
- MMP assays efficacy (%) Rat Hepatocytes [4]: -43±22%

SMILES: Oc1cc(Cl)c(Cl)cc1Cl.[Na] [2,4,5-Trichlorophenol sodium salt]
- IC50 [1]: 27.3 ± 25.2 µM
- MMP assays efficacy (%) qHTS-HepG2 [2]: -99±23%
- IC50 [2, 6]: 5.05 ± 2.09 µM
- MMP assays efficacy (%) HepG2 [3]: -98%
- IC50 [3]: 10 µM
- MMP assays efficacy (%) Rat Hepatocytes [4]: -130±56%

SMILES: CC(C)(c1ccccc1)c1ccc(O)c(C(C)(C)c2ccccc2)c1 [2,4-Bis(1-methyl-1-phenylethyl)phenol]
- IC50 [1]: 43.9 ± 17.4 µM
- MMP assays efficacy (%) qHTS-HepG2 [2]: -108±7%
- IC50 [2, 6]: 3.49 ± 1.51 µM
- MMP assays efficacy (%) HepG2 [3]: -90%
- IC50 [3]: 2.82 µM
- MMP assays efficacy (%) Rat Hepatocytes [4]: -78±5%

SMILES: COc1ccc(N)cc1N.O=S(=O)(O)O [2,4-Diaminoanisole sulfate]
- IC50 [1]: 19.6 ± 19.3 µM
- MMP assays efficacy (%) qHTS-HepG2 [2]: -95±6%
- IC50 [2, 6]: 2.51 ± 1.16 µM
- MMP assays efficacy (%) HepG2 [3]: -125%
- IC50 [3]: 7.94 µM
- MMP assays efficacy (%) Rat Hepatocytes [4]: -58±24%
